Experimental data taken from patent US12297194B2, “N2-phenylpyrimidine-2,4-diamine compounds, and preparation methods and methods of use thereof” (BRIDGE BIOTHERAPEUTICS, INC., priority 2021, dated 2025).

Experiments:
Type in all cases: cell-based, murine
[1] = molecular target: Ba/F3 EGFR Del19/T790M mutants (Homo sapiens, UniProt P00533, T790M, cells depend on it, form not given); experiment: CellTiter-Glo cell viability, Ba/F3 EGFR Del19/T790M cells; conditions: 72 hours, read-out: Ba/F3 EGFR mutant cell (IC50, nM) D/T
Ba/F3 EGFR Del19/T790M mutants, sequence (P00533 with tags, fused parts or gaps DEL746-750/T790M, form open): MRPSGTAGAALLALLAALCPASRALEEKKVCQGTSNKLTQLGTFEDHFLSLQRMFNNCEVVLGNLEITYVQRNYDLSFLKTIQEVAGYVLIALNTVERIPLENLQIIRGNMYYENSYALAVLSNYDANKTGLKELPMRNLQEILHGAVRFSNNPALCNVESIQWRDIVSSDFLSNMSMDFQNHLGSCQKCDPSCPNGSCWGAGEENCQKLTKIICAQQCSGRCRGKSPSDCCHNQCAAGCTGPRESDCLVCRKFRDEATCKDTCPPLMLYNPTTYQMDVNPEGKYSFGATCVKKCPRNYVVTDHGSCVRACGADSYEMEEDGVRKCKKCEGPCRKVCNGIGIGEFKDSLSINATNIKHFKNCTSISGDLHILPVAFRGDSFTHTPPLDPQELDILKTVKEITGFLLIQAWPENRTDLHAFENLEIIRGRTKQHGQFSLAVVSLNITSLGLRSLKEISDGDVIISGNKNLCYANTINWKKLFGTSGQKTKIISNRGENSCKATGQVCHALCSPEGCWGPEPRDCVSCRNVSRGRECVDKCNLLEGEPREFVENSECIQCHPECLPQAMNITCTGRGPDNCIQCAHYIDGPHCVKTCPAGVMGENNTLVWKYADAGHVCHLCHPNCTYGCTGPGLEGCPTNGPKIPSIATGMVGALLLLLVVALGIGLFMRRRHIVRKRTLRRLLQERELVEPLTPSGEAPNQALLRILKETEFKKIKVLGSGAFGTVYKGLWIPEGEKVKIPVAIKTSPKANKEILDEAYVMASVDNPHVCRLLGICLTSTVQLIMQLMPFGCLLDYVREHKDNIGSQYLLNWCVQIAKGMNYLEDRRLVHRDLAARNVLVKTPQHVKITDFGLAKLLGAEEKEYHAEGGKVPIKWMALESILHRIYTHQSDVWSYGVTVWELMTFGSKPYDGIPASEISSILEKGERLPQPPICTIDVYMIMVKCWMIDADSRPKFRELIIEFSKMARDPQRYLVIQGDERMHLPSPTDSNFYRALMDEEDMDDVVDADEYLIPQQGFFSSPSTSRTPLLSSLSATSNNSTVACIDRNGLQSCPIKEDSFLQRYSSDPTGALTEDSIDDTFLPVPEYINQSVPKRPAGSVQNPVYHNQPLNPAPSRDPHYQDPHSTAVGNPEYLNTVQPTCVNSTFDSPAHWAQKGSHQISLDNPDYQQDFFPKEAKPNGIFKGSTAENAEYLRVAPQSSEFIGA
In short: (§1)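 Ba/F3 cells expressing wild-type or mutant EGFR were seeded at 2500 cells/well, treated after 24 hours with compound at 0–2000 nM (ten points), and incubated 72 hours at 37° C. Viability was read as cellular ATP by CellTiter-Glo luminescence, and IC50 values were fitted from the dose-response.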

[2] = molecular target: Ba/F3 EGFR L858R/T790M/C797S mutants (Homo sapiens, UniProt P00533, T790M/C797S/L858R, cells depend on it); experiment: CellTiter-Glo cell viability, Ba/F3 EGFR L858R/T790M/C797S cells; conditions: 72 hours, read-out: Ba/F3 EGFR mutant cell (IC50, nM) L/T/C
In short: as §1

Ba/F3 EGFR Wild-type = Ba/F3 EGFR Wild-type (Homo sapiens, UniProt P00533); experiment: CellTiter-Glo cell viability, Ba/F3 EGFR wild-type cells; conditions: 72 hours, read-out: Ba/F3 EGFR mutant cell (IC50, nM) WT
Ba/F3 EGFR Wild-type, sequence (P00533 whole entry, change not shown): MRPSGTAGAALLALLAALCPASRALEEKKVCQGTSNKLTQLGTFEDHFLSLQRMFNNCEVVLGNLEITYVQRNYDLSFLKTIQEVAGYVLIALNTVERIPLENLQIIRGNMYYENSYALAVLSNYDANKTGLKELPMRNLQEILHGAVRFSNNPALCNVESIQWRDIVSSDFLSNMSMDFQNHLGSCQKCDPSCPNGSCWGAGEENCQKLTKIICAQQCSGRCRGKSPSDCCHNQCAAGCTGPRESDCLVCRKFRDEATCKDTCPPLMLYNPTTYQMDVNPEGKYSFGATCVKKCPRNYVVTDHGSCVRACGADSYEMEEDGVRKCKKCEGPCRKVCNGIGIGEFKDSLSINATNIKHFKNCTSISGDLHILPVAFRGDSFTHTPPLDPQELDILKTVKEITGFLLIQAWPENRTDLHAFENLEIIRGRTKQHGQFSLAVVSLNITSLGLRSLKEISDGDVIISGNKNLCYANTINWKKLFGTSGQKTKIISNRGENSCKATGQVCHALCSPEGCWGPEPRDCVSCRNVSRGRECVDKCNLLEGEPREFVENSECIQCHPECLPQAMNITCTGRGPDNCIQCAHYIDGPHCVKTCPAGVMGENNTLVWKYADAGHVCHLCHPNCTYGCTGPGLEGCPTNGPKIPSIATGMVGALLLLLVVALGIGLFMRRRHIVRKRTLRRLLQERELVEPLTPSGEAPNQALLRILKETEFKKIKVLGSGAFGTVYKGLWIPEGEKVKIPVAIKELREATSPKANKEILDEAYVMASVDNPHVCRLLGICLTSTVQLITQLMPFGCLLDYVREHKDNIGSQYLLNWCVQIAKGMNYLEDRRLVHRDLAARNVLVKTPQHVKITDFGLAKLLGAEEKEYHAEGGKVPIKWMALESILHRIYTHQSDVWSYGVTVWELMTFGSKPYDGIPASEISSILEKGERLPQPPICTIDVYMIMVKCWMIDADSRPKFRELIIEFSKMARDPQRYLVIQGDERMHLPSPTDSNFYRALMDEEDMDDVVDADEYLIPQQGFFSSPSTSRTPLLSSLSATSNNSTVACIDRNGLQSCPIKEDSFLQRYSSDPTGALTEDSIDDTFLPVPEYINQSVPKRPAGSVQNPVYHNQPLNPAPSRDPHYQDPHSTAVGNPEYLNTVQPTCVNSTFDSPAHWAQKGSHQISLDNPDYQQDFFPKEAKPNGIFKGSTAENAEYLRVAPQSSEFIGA
In short: as §1

[3] = molecular target: Ba/F3 EGFR L858R/C797S mutants (Homo sapiens, UniProt P00533, C797S/L858R, cells depend on it); experiment: CellTiter-Glo cell viability, Ba/F3 EGFR L858R/C797S cells; conditions: 72 hours, read-out: Ba/F3 EGFR mutant cell (IC50, nM) L/C
Ba/F3 EGFR L858R/C797S mutants, sequence (P00533 whole entry C797S/L858R): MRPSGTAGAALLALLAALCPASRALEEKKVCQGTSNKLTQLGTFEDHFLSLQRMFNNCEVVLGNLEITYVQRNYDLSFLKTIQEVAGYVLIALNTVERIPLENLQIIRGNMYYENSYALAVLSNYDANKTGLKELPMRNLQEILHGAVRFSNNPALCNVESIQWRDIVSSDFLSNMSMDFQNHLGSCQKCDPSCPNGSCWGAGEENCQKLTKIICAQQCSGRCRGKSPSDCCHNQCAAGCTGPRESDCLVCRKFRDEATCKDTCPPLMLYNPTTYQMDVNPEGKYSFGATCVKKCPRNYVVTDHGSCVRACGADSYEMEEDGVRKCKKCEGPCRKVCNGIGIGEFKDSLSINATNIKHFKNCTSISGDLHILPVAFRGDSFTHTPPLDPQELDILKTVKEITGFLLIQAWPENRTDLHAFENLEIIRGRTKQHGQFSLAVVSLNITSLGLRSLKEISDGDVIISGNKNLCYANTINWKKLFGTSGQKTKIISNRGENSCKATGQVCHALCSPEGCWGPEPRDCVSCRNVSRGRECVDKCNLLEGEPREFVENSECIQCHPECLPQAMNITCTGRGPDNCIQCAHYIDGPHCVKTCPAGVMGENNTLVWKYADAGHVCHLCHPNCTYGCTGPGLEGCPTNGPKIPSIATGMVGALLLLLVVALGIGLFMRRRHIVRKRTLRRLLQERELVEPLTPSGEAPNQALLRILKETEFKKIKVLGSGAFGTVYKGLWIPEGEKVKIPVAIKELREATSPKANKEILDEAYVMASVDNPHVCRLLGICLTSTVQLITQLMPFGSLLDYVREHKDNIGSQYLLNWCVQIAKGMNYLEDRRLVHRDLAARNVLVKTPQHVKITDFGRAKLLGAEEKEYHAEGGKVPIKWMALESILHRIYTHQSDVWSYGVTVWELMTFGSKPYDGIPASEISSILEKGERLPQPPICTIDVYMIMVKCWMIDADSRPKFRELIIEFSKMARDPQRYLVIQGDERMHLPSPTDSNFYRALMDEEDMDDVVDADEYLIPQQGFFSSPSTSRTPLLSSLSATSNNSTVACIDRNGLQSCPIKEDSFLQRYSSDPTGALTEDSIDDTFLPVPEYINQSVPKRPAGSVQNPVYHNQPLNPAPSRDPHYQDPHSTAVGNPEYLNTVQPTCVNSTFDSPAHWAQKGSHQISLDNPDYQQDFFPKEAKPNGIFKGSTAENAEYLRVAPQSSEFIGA
In short: as §1

[4] = molecular target: Ba/F3 EGFR Del19/C797S mutants (Homo sapiens, UniProt P00533, C797S, cells depend on it, form not given); experiment: CellTiter-Glo cell viability, Ba/F3 EGFR Del19/C797S cells; conditions: 72 hours, read-out: Ba/F3 EGFR mutant cell (IC50, nM) D/C
Ba/F3 EGFR Del19/C797S mutants, sequence (P00533 with tags, fused parts or gaps DEL746-750/C797S, form open): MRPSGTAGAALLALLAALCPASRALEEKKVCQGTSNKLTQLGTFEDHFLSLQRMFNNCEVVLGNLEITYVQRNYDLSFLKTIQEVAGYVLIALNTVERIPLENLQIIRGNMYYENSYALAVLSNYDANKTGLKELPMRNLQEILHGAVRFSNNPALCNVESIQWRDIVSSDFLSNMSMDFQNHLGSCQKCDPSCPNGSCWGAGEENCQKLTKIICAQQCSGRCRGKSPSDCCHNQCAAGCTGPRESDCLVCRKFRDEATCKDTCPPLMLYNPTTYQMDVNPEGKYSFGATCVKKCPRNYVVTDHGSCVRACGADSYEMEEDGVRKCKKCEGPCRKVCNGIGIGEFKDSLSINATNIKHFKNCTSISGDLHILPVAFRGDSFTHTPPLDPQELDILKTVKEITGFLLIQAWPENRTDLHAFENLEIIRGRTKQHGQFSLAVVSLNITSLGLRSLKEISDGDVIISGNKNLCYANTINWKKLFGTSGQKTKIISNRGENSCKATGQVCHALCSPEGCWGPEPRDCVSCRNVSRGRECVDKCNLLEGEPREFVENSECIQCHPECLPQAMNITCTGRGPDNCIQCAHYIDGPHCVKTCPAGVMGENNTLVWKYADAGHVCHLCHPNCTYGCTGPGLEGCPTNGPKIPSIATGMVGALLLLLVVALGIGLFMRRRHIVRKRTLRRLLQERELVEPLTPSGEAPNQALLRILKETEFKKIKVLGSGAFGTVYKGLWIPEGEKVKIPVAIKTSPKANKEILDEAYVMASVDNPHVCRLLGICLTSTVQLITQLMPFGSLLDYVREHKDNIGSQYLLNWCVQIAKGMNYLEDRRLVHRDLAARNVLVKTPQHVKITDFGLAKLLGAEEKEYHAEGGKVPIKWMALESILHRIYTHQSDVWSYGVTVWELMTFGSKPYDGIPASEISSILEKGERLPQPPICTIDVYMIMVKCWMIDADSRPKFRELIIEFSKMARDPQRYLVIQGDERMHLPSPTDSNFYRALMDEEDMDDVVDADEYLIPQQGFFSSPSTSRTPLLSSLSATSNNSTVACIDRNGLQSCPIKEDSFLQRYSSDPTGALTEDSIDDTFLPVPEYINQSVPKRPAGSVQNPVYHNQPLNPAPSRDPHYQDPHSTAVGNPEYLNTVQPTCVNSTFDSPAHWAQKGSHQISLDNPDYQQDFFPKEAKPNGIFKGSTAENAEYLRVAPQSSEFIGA
In short: as §1

[5] = molecular target: Ba/F3 EGFR Del19/T790M/C797S mutants (Homo sapiens, UniProt P00533, T790M/C797S, cells depend on it, form not given); experiment: CellTiter-Glo cell viability, Ba/F3 EGFR Del19/T790M/C797S cells; conditions: 72 hours, read-out: Ba/F3 EGFR mutant cell (IC50, nM) D/T/C
In short: as §1

Row | SMILES | GI50 [1] [nM] | GI50 [2] [nM] | GI50 (Ba/F3 EGFR Wild-type) [nM] | GI50 [3] [nM] | GI50 [4] [nM] | GI50 [5] [nM]
1 | CCS(=O)(=O)Nc1cc(OC)ccc1Nc1nc(Nc2cc(C)c(N3CCC(N4CCN(C)CC4)CC3)cc2OC)ncc1Cl [Example C17, N-(2-((5-chloro-2-((2-methoxy-5-methyl-4-(4-(4-methylpiperazin-1-yl)piperidin-1-yl)phenyl)amino)pyrimidin-4-yl)amino)-5-methoxyphenyl)ethanesulfonamide] | 7 | 40 | 655 | 52 | 9 | 14
2 | COc1cc(N2CCC(N3CCN(C)CC3)CC2)c(C)cc1Nc1ncc(Cl)c(Nc2cccc(OC)c2NS(C)(=O)=O)n1 [Example C24, N-(2-((5-chloro-2-((2-methoxy-5-methyl-4-(4-(4-methylpiperazin-1-yl)piperidin-1-yl)phenyl)amino)pyrimidin-4-yl)amino)-6-methoxyphenyl)methanesulfonamide] | 14 | 83 | 605 | 41 | 6 | 7
3 | COc1cc(N2CCC(N3CCN(C)CC3)CC2)c(C)cc1Nc1ncc(Br)c(Nc2cccc(OC)c2NS(C)(=O)=O)n1 [Example C1, N-(2-((5-bromo-2-((2-methoxy-5-methyl-4-(4-(4-methylpiperazin-1-yl)piperidin-1-yl)phenyl)amino)pyrimidin-4-yl)amino)-6-methoxyphenyl)methanesulfonamide] | 6 | 12 | 408 | 63 | 18 | 13
4 | CCc1cc(Nc2ncc(Cl)c(Nc3ccc4nccnc4c3N(C)S(C)(=O)=O)n2)c(OC)cc1N1CC2(C1)CN(C(C)C)C2 [Example B27, N-(6-((5-chloro-2-((5-ethyl-4-(6-isopropyl-2,6-diazaspiro[3.3]heptan-2-yl)-2-methoxyphenyl)amino)pyrimidin-4-yl)amino)quinoxalin-5-yl)-N-methylmethanesulfonamide] | 25 | 40 | 359 | 35 | 18 | 5
5 | CCCc1cc(Nc2ncc(Cl)c(Nc3ccc(OC)cc3NS(C)(=O)=O)n2)c(OC)cc1N1CCC(N(C)C)CC1 [Example C12, N-(2-((5-chloro-2-((4-(4-(dimethylamino)piperidin-1-yl)-2-methoxy-5-propylphenyl)amino)pyrimidin-4-yl)amino)-5-methoxyphenyl)methanesulfonamide] | 8 | 29 | 731 | 28 | 6 | 9
6 | CCc1cc(Nc2ncc(Br)c(Nc3ccc4nccnc4c3N(C)S(C)(=O)=O)n2)c(OC)cc1N1CC2(CCN2C(C)C)C1 [Example B31, N-(6-((5-bromo-2-((5-ethyl-4-(1-isopropyl-1,6-diazaspiro[3.3]heptan-6-yl)-2-methoxyphenyl)amino)pyrimidin-4-yl)amino)quinoxalin-5-yl)-N-methylmethanesulfonamide] | 8 | 43 | 482 | 43 | 15 | 6
7 | COC(=O)Nc1c(Nc2nc(Nc3ccc(C4CCNCC4)cc3OC)ncc2Cl)ccc2nccnc12 [Example D4, methyl (6-((5-chloro-2-((2-methoxy-4-(piperidin-4-yl)phenyl)amino)pyrimidin-4-yl)amino)quinoxalin-5-yl)carbamate] | 694 | > 2000 | > 2000 | 1570 | 746 | 870
8 | COc1ccc(Nc2nc(Nc3cc(C)c(N4CCC(N(C)C)CC4)cc3OC)ncc2Cl)c(NS(C)(=O)=O)c1 [Example C4, N-(2-((5-chloro-2-((4-(4-(dimethylamino)piperidin-1-yl)-2-methoxy-5-methylphenyl)amino)pyrimidin-4-yl)amino)-5-methoxyphenyl)methanesulfonamide] | 30 | 38 | 263 | 91 | 31 | 132
